According to publication PMC6240096, “A hPSC-based platform to discover gene-environment interactions that impact human β-cell and dopamine neuron survival” (Nature Communications, 2018):

Legend:
INS- cells = assay: High-content survival / inhibitory curve, hESC-derived INS- cells; format: cell-based, human; details: H1 hESC-derived, β-cell differentiation protocol 1, 4 days treatment, n = 8
Method: The screening library ToxCast Phase I was obtained from the US Environmental Protection Agency, which contains approximately 2000 compounds dissolved at 20 mM in DMSO. The H1 hESC-derived population was dissociated with Accutase and re-plated onto laminin V-coated 384-well plates at 5000 cells per well. After 16 h incubation, cells were treated with individual compounds from the ToxCast library with four concentrations, including 20 nM, 200 nM, 2 μM, and 20 μM, for each compound. After 4 days, the cells were fixed with 10% formalin and stained with an INS antibody and DAPI, followed by automatic imaging and analysis by ImageXpress^MICRO Automated High-Content Analysis System (Molecular Devices) to count the numbers of INS^+ and INS^− cells. The survival rate was calculated by dividing the numbers of INS^+ cells in compound treated conditions by the average number of INS^+ cells in DMSO-treated conditions. The compounds that induced more than 60% reduction of the survival rate of INS^+ cells and less than 20% of the INS^− cells were chosen as primary hits. […]
hESCs-derived INS^+ cells, MSCs[43], neurons, and hepatocytes[44] were derived based on the reported protocols and re-plated on 96-well plates with Accutase digestion. […] Plates were analyzed by ImageXpress^MICRO Automated High-Content Analysis System.

HuC/D+ neurons = assay: Inhibition curve / survival of hESC-derived neurons; format: cell-based, human
Method: hESCs-derived INS^+ cells, MSCs[43], neurons, and hepatocytes[44] were derived based on the reported protocols and re-plated on 96-well plates with Accutase digestion. Cardiomyocytes (CMs) were differentiated from H9-MYH6: mCherry reporter line, based on the reported protocol. After overnight incubation, cells were treated with DMSO or different doses of hit compounds for 4 days. After fixation, the cells were stained with markers for each cell type. DAPI was used to stain cell nuclei. Plates were analyzed by ImageXpress^MICRO Automated High-Content Analysis System.
Supplementary Figure 4. Assessment of the toxic effect of propargite on different type […]
(a) Flow cytometry char acterization of CD29+ and CD73+ mesenchymal stem cells (MSCs) derived from H1 hESCs. (b-c) microscope image (b) and flow cytometry (c) characterization of cardiomyocytes expressing MYH6+ derived from a MYH6:mCherry reporter hESC line. (d-e) Immunocytochemistry characterization of MAP2+/TUJ1+ and HuC/D+/MAP2+ neurons (d) and A1AT+/ASGPR1+ hepatocytes (e) derived from H1 hESCs. All the cells were counterstained by DAPI (blue). Scale bars, 100 µm. (f) Inhibition curve of propargite on pancreatic β-like cells, MSCs, cardiomyocytes, neurons, and hepatocytes derived from hESCs, and BJ-fibroblasts (n=3). Values presented as mean±S.D. […]

EndoC-βH1-Luc cells = assay: Humanized NSG mice transplanted with EndoC-βH1-Luc cells; format: in vivo, human; details: 12 mg/kg
Method: LentiLuc-blast plasmid was constructed based on the LentiCas9-blast vector (Addgene, 52926). The luciferase gene was driven by a constitutively active EFS promoter. EndoC-βH1 cells were infected with the lentivirus followed by 4 days selection with 20 μg/ml blasticidin to create EndoC-βH1-Luc cells. Adult 6–8 week old female NSG immunodeficient mice (Jackson Laboratory) were transplanted with 5 × 10^5 EndoC-βH1-Luc cells to create a humanized mouse model. Baseline luminescent levels were obtained 5 days after transplantation. 12 mg/kg propargite or vehicle were then administrated for 5 days via intraperitoneal injection (the starting day referred to as day 0). In vivo imaging was performed on day 1, 3, and 5 with an Xtreme Optical and X-ray small animal imaging system. During the imaging, isoflurane was used for anesthesia. 2 mg/150 µl/25 g body weight luciferin potassium salt (Regis, 360223) was applied to each mouse. To generate EndoC-βH1-Luc cells carrying sgGSTT1 or sgGFP, EndoC-βH1-Luc cells were infected with the lentivirus carrying Cas9 and sgRNAs (sgGSTT1 or sgGFP), and purified with 2 days selection using 1 μg/ml puromycin. Adult 6–8-week-old female NSG-immunodeficient mice (Jackson Laboratory) were transplanted with 5 × 10^5 EndoC-βH1-Luc cells carrying sgGSTT1 or sgGFP (control). 12 mg/kg propargite or vehicle were administrated for 3 days via intraperitoneal injection, mice were then sacrificed at day 3. The xenografts were embedded in OCT. The tissue was then sectioned at 5 μm to detect cell death with TUNEL assays (In Situ Cell Death Detection Kit, TMR red, Sigma, 12156792910) and for immunohistochemistry staining analysis of β-cell marker INS to measure cell death rate in EndoC-βH1-Luc cells carrying sgGSTT1 or sgGFP.

MIN6 cells = assay: Intracellular ROS detection; details: propargite-treated MIN6 cells
Method: Total intracellular ROS were detected using DCFDA-Cellular Reactive Oxygen Species Detection Assay Kit (Abcam, ab113851).
Species detection for different doses of propargite-treated MIN6 cells (n=3). 50 µM TBHP
was used as a positive control.

2-(4-tert-butylphenoxy)-cyclohexyl prop-2-yne-1-sulfonate [propargite]
IC50 (INS- cells): 9.83 µM | susceptibility of HuC/D+ neurons (HuC/D+ neurons; 1.6 μM propargite): highly susceptible | IC50 (HuC/D+ neurons; cell survival rate, 4 days, n=3): 1.46 µM | cell death rate (TUNEL) of EndoC-βH1-Luc cells carrying sgGSTT1 vs sgGFP (EndoC-βH1-Luc cells; day 3): higher cell death rate | luciferase signal of EndoC-βH1-Luc cells (EndoC-βH1-Luc cells; day 3): slower rate increase | luciferase signal of EndoC-βH1-Luc cells (EndoC-βH1-Luc cells; day 5): marked decrease | reactive oxygen species (ROS) (MIN6 cells): did not find any increase
